Drawing on patent EP4707280A1, “1,4-CINEOLE DERIVATIVE AND INTERMEDIATE THEREOF, HERBICIDE CONTAINING SAID DERIVATIVE AS ACTIVE INGREDIENT, METHOD FOR USING HERBICIDE, AND METHOD FOR PREPARING AGROCHEMICAL COMPOSITION” (HOKKO CHEMICAL INDUSTRY CO., LTD., priority 2023, dated 2024), this text covers inhibition and pest or weed control for 25 compounds.

Each structure is given as a SMILES string. Like-named read-outs stand apart in the source and are kept apart here.

Format in all cases: in vivo
Test [1] deals with Echinochloa crus-galli var. formosensis at the three-leaf stage. Description: Comparative Example: herbicidal effect test by application during growth period of paddy rice (three-leaf stage, Table 7). Particulars: 504 h, active ingredient 7.5 g per 10 ares, emulsifiable concentrate applied by dropper to flooded pots, 21 days after chemical application, triplicate, read-out: Weed inhibition rate (%). On the procedure: As an example, the herbicidal effect on Echinochloa crus-galli var. formosensis at the three-leaf stage was confirmed by the following method, and the results are specifically shown in Table 7 as a comparative example.
Wagner pots with an area of […] were filled with paddy soil, followed by addition of water and incorporation of chemical fertilizer (N:P:K = 16:16:16), after which puddling was performed. After that, 30 seeds of Echinochloa crus-galli var. formosensis were sown at a depth of 0 cm to 1 cm. Immediately after sowing, the pots were flooded and a water depth of approximately 3 cm was maintained. Subsequent management was conducted in a glass greenhouse. When Echinochloa crus-galli var. formosensis reached the three-leaf stage, an emulsifiable concentrate prepared according to Formulation Example 5 using the compound shown below was diluted with water, and a specified amount of the diluted solution was applied by dropper. The amount of the active ingredient to be applied was equivalent to 7.5 g per 10 ares. The test was conducted in triplicate for each chemical concentration group, and the weed inhibition rate (%) was determined 21 days after chemical application using the following formula (Math. 1).

Another test relates to Chenopodium album. Description: Test Example 4: herbicidal effect test by stem and leaf treatment in upland field. Particulars: 120 g per 10 ares, sprayed seven days after sowing, upland soil, 14 days after application, read-out: weed inhibition rate.
Test [2] relates to Amaranthus viridis. Description: Test Example 7: herbicidal effect test by soil application in upland field (low dose). Particulars: read-out: weed inhibition rate.
In test [3] the test system is Lindernia pyxidaria. Description: Test Example 1: herbicidal effect test by soil application in paddy rice. The settings on record: 336 h, 120 g active ingredient per 10 ares, applied immediately after sowing, flooded pots, 14 days after application, read-out: weed inhibition rate. The essentials: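 Inhibition rate (%) read 14 days after treatment, duplicate pots. Water-diluted emulsifiable concentrate was applied by dropper at 120 g active ingredient/10 ares right after sowing. Seeds (30 per species, 0–1 cm deep) went into puddled paddy soil kept flooded at about 3 cm in a greenhouse.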

For test [4], the system named is Lindernia pyxidaria. Description: Test Example 2: herbicidal effect test by application during growth period of paddy rice. Particulars: 120 g per 10 ares, applied seven days after sowing, flooded pots, 14 days after application, read-out: weed inhibition rate. The essentials:
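Flooded paddy pot test, greenhouse. Seeds 30/species, 0–1 cm depth, water ~3 cm. EC diluted in water, dropper-applied 7 d post-sowing at 120 g a.i./10 a. Inhibition rate (%) read 14 d after treatment; n=2.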

Test [5] deals with Lindernia pyxidaria. Nature of the test: Test Example 5: herbicidal effect test by soil application in paddy rice (low dose). Particulars: 336 h, 7.5 g per 10 ares, applied immediately after sowing, flooded pots, 14 days after application, read-out: weed inhibition rate. The essentials: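 Pre-emergence paddy test: seeds sown 0–1 cm (30 each), pots flooded ~3 cm, greenhouse. EC dilution dropped into water right after sowing, 7.5 g a.i./10 a. Duplicate pots; weed inhibition rate (%) by formula, day 14.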

Test [6] has as its system Amaranthus viridis. Description: Test Example 4: herbicidal effect test by stem and leaf treatment in upland field. Particulars: 120 g per 10 ares, sprayed seven days after sowing, upland soil, 14 days after application, read-out: weed inhibition rate. The essentials: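 Upland alluvial loam soil in pots, twenty seeds per weed species mixed into top 1 cm; seven days after sowing, emulsifiable concentrate diluted in water sprayed at 100 liters per 10 ares, active ingredient 120 g per 10 ares. Weed inhibition rate (%) scored 14 days after application, duplicate per concentration.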

[7] abbreviates: 7.5 g per 10 ares, sprayed one day after sowing, upland soil, 14 days after application.

Take `CC(C)[C@]12C[C@@H](OCc3ccccc3F)[C@](C)(C[C@@H]1F)O2` [1-5, (1R,2S,4S,5R)-2-fluoro-5-((2-fluorobenzyl)oxy)-1-isopropyl-4-methyl-7-oxabicyclo[2.2.1]heptane]: in test [1], the inhibition at 75 g/ha came out at 100%. Besides, in the test on Chenopodium album, the inhibition at 1200 g/ha was at least 80%. `CC(C)[C@]12C[C@@H](OCc3c(F)cccc3F)[C@](C)(C[C@@H]1F)O2` [1-7, (1S,2R,4R,5S)-2-((2,6-difluorobenzyl)oxy)-5-fluoro-4-isopropyl-1-methyl-7-oxabicyclo[2.2.1]heptane]: the results for the inhibition at 75 g/ha (in the test with Amaranthus viridis [2] (setting [7]); in test [1]) were at least 80% and 100%, respectively. In addition, the pest or weed control at 1200 g/ha in the test with Lindernia pyxidaria [3] is at least 80%. Also, in the test with Chenopodium album, the inhibition at 1200 g/ha is at least 80%.

As for `CC(C)[C@]12C[C@@H](OCc3ccccc3)[C@](C)(C[C@@H]1Br)O2` [1-15, (1S,2R,4R,5S)-5-bromo-1-methyl-2-phenylmethoxy-4-isopropyl-7-oxabicyclo[2.2.1]heptane], the inhibition at 75 g/ha in test [1] amounted to 80%.

With `Cc1ccccc1CO[C@@H]1C[C@]2(C(C)C)O[C@@]1(C)C[C@@H]2Br` [1-16, (1S,2R,4R,5S)-5-bromo-1-methyl-2-[(2-methylphenyl)methoxy]-4-isopropyl-7-oxabicyclo[2.2.1]heptane], the pest or weed control at 1200 g/ha in the test with Lindernia pyxidaria [3] is at least 80%. For the compound `CC(C)[C@]12C[C@@H](OCc3ccccc3F)[C@](C)(C[C@@H]1Br)O2` [1-19, (1S,2R,4R,5S)-5-bromo-2-[(2-fluorophenyl)methoxy]-1-methyl-4-isopropyl-7-oxabicyclo[2.2.1]heptane], the inhibition at 1200 g/ha with Lindernia pyxidaria [4] and in the test on Chenopodium album was at least 80% in each case. In test [1], the inhibition at 75 g/ha turned out to be 88%. The pest or weed control at 1200 g/ha in the test on Lindernia pyxidaria [3] was at least 80%. For the compound `CC(C)[C@]12C[C@@H](OCc3c(F)cccc3F)[C@](C)(C[C@@H]1Br)O2` [1-21, (1S,2R,4R,5S)-5-bromo-2-[(2,6-difluorophenyl)methoxy]-1-methyl-4-isopropyl-7-oxabicyclo[2.2.1]heptane], the inhibition at 75 g/ha in test [1] is 93%. As for `Cc1ccccc1CO[C@@H]1C[C@]2(C(C)C)O[C@@]1(C)CC2C` (stereo partly drawn) [1-83, (1S,2R,4R)-4-isopropyl-1,5-dimethyl-2-((2-methylbenzyl)oxy)-7-oxabicyclo[2.2.1]heptane], the inhibition at 75 g/ha in test [1] stood at 99%. In addition, the inhibition at 1200 g/ha in the test with Chenopodium album is at least 80%. Turning to `CC(C)[C@]12C[C@@H](OCc3c(F)cccc3F)[C@](C)(CC1C)O2` (stereo partly drawn) [1-111, (1S,2R,4R)-2-((2,6-difluorobenzyl)oxy)-4-isopropyl-1,5-dimethyl-7-oxabicyclo[2.2.1]heptane], the inhibition at 75 g/ha in test [1] worked out at 100%. `CCC1C[C@]2(C)O[C@@]1(C(C)C)C[C@H]2OCc1ccccc1F` (stereo partly drawn) [1-126, (1R,4S,5R)-2-ethyl-5-[(2-fluorobenzyl)oxy]-1-isopropyl-4-methyl-7-oxabicyclo[2.2.1]heptane]: the inhibition at 75 g/ha in test [1] was 100%. Still for that read-out and setting: under `CCO[C@H]1C[C@]2(C)O[C@@]1(C(C)C)C[C@H]2OCc1ccccc1F` [1-183, (1S,2R,4R,5S)-5-ethoxy-2-[(2-fluorophenyl)methoxy]-1-methyl-4-isopropyl-7-oxabicyclo[2.2.1]heptane] stands 93%. Consider `CC(C)=CCO[C@@H]1C[C@]2(C(C)C)O[C@@]1(C)C[C@@H]2Br` [1-672, (1S,2R,4R,5S)-5-bromo-1-methyl-2-(3-methylbut-2-enoxy)-4-isopropyl-7-oxabicyclo[2.2.1]heptane], for which, in the test on Lindernia pyxidaria [4], the inhibition at 1200 g/ha was at least 80%. As to `CC(C)[C@]12C[C@@H](OCc3ccccc3Br)[C@](C)(C[C@@H]1Br)O2` [1-694, (1S,2R,4R,5S)-5-bromo-2-[(2-bromophenyl)methoxy]-1-methyl-4-isopropyl-7-oxabicyclo[2.2.1]heptane], the inhibition at 75 g/ha in the test with Amaranthus viridis [2] (setting [7]) is at least 80%. In the case of `CC(C)[C@]12C[C@@H](OCc3ccccc3C#N)[C@](C)(C[C@@H]1Br)O2` [1-703, 2-[[(1S,2R,4R,5S)-5-bromo-1-methyl-4-isopropyl-7-oxabicyclo[2.2.1]heptan-2-yl]oxymethyl]benzonitrile], the inhibition at 1200 g/ha with Lindernia pyxidaria [4] was at least 80%. Further, the pest or weed control at 1200 g/ha in the test on Lindernia pyxidaria [3] was at least 80%. Consider `Cc1ccccc1CO[C@@H]1C[C@]2(C(C)C)O[C@@]1(C)C[C@@H]2I` [1-741, (1S,2R,4R,5S)-5-iodo-1-methyl-2-[(2-methylphenyl)methoxy]-4-isopropyl-7-oxabicyclo[2.2.1]heptane], for which, in the test on Lindernia pyxidaria [3], the pest or weed control at 1200 g/ha was at least 80%. Moreover, the inhibition at 75 g/ha with Lindernia pyxidaria [5] was at least 80%. On to `CC(C)[C@]12C[C@@H](OCc3ccccc3F)[C@](C)(C[C@@H]1I)O2` [1-753, (1S,2R,4R,SS)-2-[(2-fluorophenyl)methoxy]-5-iodo-1-methyl-4-isopropyl-7-oxabicyclo[2.2.1]heptane], for which the inhibition at 75 g/ha with Amaranthus viridis [2] (soil) was at least 80%; in test [1], 93%.

In the case of `COC1(OC)C[C@]2(C)O[C@@]1(C(C)C)C[C@H]2OCc1ccccc1F` [1-935, (1R,4S,5R)-5-((2-fluorobenzyl)oxy)-1-isopropyl-2,2-dimethoxy-4-methyl-7-oxabicyclo[2.2.1]heptane], in the test on Lindernia pyxidaria [4], the inhibition at 1200 g/ha was at least 80%. The pest or weed control at 1200 g/ha in the test on Lindernia pyxidaria [3] is at least 80%.

Take `C=CCO[C@H]1C[C@]2(C)O[C@@]1(C(C)C)C[C@H]2OCc1ccccc1F` [1-1602, (1S,2R,4R,5S)-2-[(2-fluorophenyl)methoxy]-1-methyl-4-isopropyl-5-prop-2-enoxy-7-oxabicyclo[2.2.1]heptane]: the inhibition at 75 g/ha in test [1] came out at 82%. As for `Cc1ccccc1CO[C@@H]1C[C@]2(C(C)C)O[C@@]1(C)CC2=O` [2-3, (1R,4S,5R)-1-isopropyl-4-methyl-5-((2-methylbenzyl)oxy)-7-oxabicyclo[2.2.1]heptan-2-one], the inhibition at 1200 g/ha in the test with Lindernia pyxidaria [4] and in the test with Chenopodium album was at least 80% each time. Also, the pest or weed control at 1200 g/ha in the test on Lindernia pyxidaria [3] was at least 80%. On to `Cc1cccc(C)c1CO[C@@H]1C[C@]2(C(C)C)O[C@@]1(C)CC2=O` [2-5, (1R,4S,5R)-5-((2,6-dimethylbenzyl)oxy)-1-isopropyl-4-methyl-7-oxabicyclo[2.2.1]heptan-2-one], for which, in the test on Lindernia pyxidaria [4], the inhibition at 1200 g/ha was at least 80%. Also, the pest or weed control at 1200 g/ha in the test on Lindernia pyxidaria [3] is at least 80%. Moreover, the inhibition at 75 g/ha with Lindernia pyxidaria [5] was at least 80%. As for `CC(C)[C@]12C[C@@H](OCc3ccccc3Cl)[C@](C)(CC1=O)O2` [2-11, (1R,4S,5R)-5-((2-chlorobenzyl)oxy)-1-isopropyl-4-methyl-7-oxabicyclo[2.2.1]heptan-2-one], the inhibition at 1200 g/ha in the test with Lindernia pyxidaria [4] is at least 80%. In the case of `Cc1ccccc1CO[C@@H]1C[C@]2(C(C)C)O[C@@]1(C)C/C2=N\O` [2-191, (1R,4S,5R,E)-1-isopropyl-4-methyl-5-((2-methylbenzyl)oxy)-7-oxabicyclo[2.2.1]heptan-2-one oxime], in the test on Amaranthus viridis [6], the inhibition at 1200 g/ha was at least 80%. Take `CC(C)[C@]12C[C@@H](OCc3ccccc3F)[C@](C)(C/C1=N\O)O2` [2-197, (1R,4S,5R,E)-5-((2-fluorobenzyl)oxy)-1-isopropyl-4-methyl-7-oxabicyclo[2.2.1]heptan-2-one oxime]: the pest or weed control at 1200 g/ha in the test on Lindernia pyxidaria [3] is at least 80%. The inhibition at 1200 g/ha in the test with Amaranthus viridis [6] was at least 80%. Consider `CC(C)[C@]12C[C@@H](OCc3ccc(F)cc3)[C@](C)(CC1=O)O2` [2-349, (1R,4S,5R)-5-((4-fluorobenzyl)oxy)-1-isopropyl-4-methyl-7-oxabicyclo[2.2.1]heptan-2-one], for which the inhibition at 1200 g/ha in the test on Lindernia pyxidaria [4] and in the test on Amaranthus viridis [6] was at least 80% throughout. Further, the pest or weed control at 1200 g/ha in the test with Lindernia pyxidaria [3] is at least 80%. With `CC(C)[C@]12C[C@@H](OCc3cccc(F)c3)[C@](C)(CC1=O)O2` [2-351, (1R,4S,5R)-5-((3-fluorobenzyl)oxy)-1-isopropyl-4-methyl-7-oxabicyclo[2.2.1]heptan-2-one], the inhibition at 1200 g/ha in the test with Lindernia pyxidaria [4] and with Chenopodium album was at least 80% in each case. The pest or weed control at 1200 g/ha in the test with Lindernia pyxidaria [3] is at least 80%. As to `Cc1ccccc1CO[C@@H]1C[C@@]2(C(C)C)C=C[C@]1(C)O2` [3-2, (1R,4S,5R)-4-methyl-5-[(2-methylphenyl)methoxy]-1-isopropyl-7-oxabicyclo[2.2.1]hept-2-ene], the inhibition at 75 g/ha with Amaranthus viridis [2] (setting [7]) is at least 80%.
